Experimental data published in publication PMC9995496, “A screen for MeCP2-TBL1 interaction inhibitors using a luminescence-based assay” (Scientific Reports, 2023).
Counter-ions that a name gives are not always drawn. Peptide text beside a SMILES is read from it. * marks the point of attachment. Cbz = O=C(OCc1ccccc1)*; CH2F = FC*

System: PRKACA-PRKAR2A interaction (SmBiT-PRKACA / LgBiT-PRKAR2A), protein kinase A
Set-up: NanoLuc complementation counter-screen in cell extract, PRKACA with PRKAR2A, loss of luminescence, detects NanoLuc interference
Settings: counter-screen for NanoLuc interference; 0.5 h, 20 µM; inhibitor

Row | SMILES | Inh (PKA) [%]
1 | C[C@@H](O[C@H]1OCCN(Cc2n[nH]c(=O)[nH]2)[C@H]1c1ccc(F)cc1)c1cc(C(F)(F)F)cc(C(F)(F)F)c1 [UM0141409:01, Aprepitant] | 12.87
2 | CC[C@@H]([C@H](C)O)n1ncn(-c2ccc(N3CCN(c4ccc(OC[C@@H]5CO[C@@](Cn6cncn6)(c6ccc(F)cc6F)C5)cc4)CC3)cc2)c1=O [UM0141411:01, Posaconazole] | 3.84
3 | CC(C)OC(=O)OCOP(=O)(CO[C@H](C)Cn1cnc2c(N)ncnc21)OCOC(=O)OC(C)C [UM0141413:01, Tenofovir Disoproxil Fumarate] | 0.7211
4 | CCOc1cc2ncc(C#N)c(Nc3ccc(F)c(Cl)c3)c2cc1NC(=O)/C=C/CN(C)C [UM0141415:01, Pelitinib (EKB-569)] | 20
5 | C=CC(=O)Nc1cc2c(Nc3ccc(F)c(Cl)c3)ncnc2cc1OCCCN1CCOCC1 [UM0141416:01, Canertinib (CI-1033)] | 5.945
6 | Oc1nc(-c2ccc(C(F)(F)F)cc2)nc2c1CSCC2 [UM0141417:01, XAV-939] | 15.47
7 | COC(=O)C[C@H](NC(=O)[C@H](C)NC(=O)[C@@H](NC(=O)OCc1ccccc1)C(C)C)C(=O)CF [UM0141421:01, Z-VAD-FMK] (Cbz-Val-Ala-Asp(OMe)-CH2F) | 1.417
8 | COC(=O)CC(NC(=O)OC(C)(C)C)C(=O)CF [UM0141423:01, Boc-D-FMK] | 1.796
9 | COC(=O)C[C@H](NC(=O)[C@H](CCSC)NC(=O)[C@H](CCC(N)=O)NC(=O)[C@H](CC(=O)OC)NC(=O)OCc1ccccc1)C(=O)CF [UM0141428:01, Z-DQMD-FMK] (Cbz-D(OMe)QMD(OMe)-CH2F) | 1.642
10 | COC(=O)C[C@H](NC(=O)[C@H](C)NC(=O)[C@@H](NC(=O)[C@H](CC(=O)OC)NC(=O)[C@@H](NC(=O)OCc1ccccc1)C(C)C)C(C)C)C(=O)CF [UM0141429:01, Z-VDVAD-FMK] (Cbz-VD(OMe)VAD(OMe)-CH2F) | -0.4508
11 | CCCNC(=O)[C@H]1O[C@@H]1C(=O)N[C@H](C(=O)N1CCC[C@H]1C(=O)O)[C@@H](C)CC [UM0141432:01, CA 074] | -0.2737
12 | CC(C)C[C@H](NC(=O)[C@H](CCc1ccccc1)NC(=O)CN1CCOCC1)C(=O)N[C@@H](Cc1ccccc1)C(=O)N[C@@H](CC(C)C)C(=O)[C@@]1(C)CO1 [UM0141433:01, Carfilzomib (PR-171)] | 0.3082
13 | COC[C@H](NC(=O)c1cnc(C)s1)C(=O)N[C@@H](COC)C(=O)N[C@@H](Cc1ccccc1)C(=O)[C@@]1(C)CO1 [UM0141434:01, Oprozomib (ONX-0912)] | -0.3511

Now from value to molecule:

Row | Inh (PKA) [%] | SMILES
14 | 28.45 | O=C(O)CCc1ccc(NCc2cccc(Oc3ccccc3)c2)cc1 [UM0141410:01, GW9508]
15 | 8.901 | C[C@H](Nc1ncnc2nc[nH]c12)c1cc2cccc(Cl)c2c(=O)n1-c1ccccc1 [UM0141412:01, IPI-145 (INK1197)]
16 | 8.649 | CCN1CCN(Cc2ccc(Nc3ncc(F)c(-c4cc(F)c5nc(C)n(C(C)C)c5c4)n3)nc2)CC1 [UM0141414:01, LY2835219]
17 | 13.87 | COc1cc2c(Oc3ccc4[nH]c(C)cc4c3F)ncnc2cc1OCCCN1CCCC1 [UM0141418:01, Cediranib (AZD217)]
18 | 7.16 | Nc1nc(OCc2cc(Br)cs2)c2[nH]cnc2n1 [UM0141425:01, Lomeguatrib]
19 | 1.344 | O=C(O)C(Cc1c[nH]c2ccccc12)N1C(=O)c2ccccc2C1=O (stereo not shown) [UM0141426:01, RG 108]
20 | 1.254 | COC(=O)CC[C@H](NC(=O)[C@H](CC(=O)OC)NC(=O)OCc1ccccc1)C(=O)N[C@H](C(=O)N[C@@H](CC(=O)OC)C(=O)CF)C(C)C [UM0141427:01, Z-DEVD-FMK]
21 | -0.4163 | CC[C@H](C)[C@H](NC(=O)[C@H](CCC(=O)OC)NC(=O)[C@@H](NC(=O)OCc1ccccc1)C(C)C)C(=O)N[C@@H](CC(=O)OC)C(=O)CF [UM0141430:01, Z-VEID-FMK] (Cbz-VE(OMe)ID(OMe)-CH2F)
22 | 2.243 | COC[C@@H]1CCCN1S(=O)(=O)c1ccc2c(c1)C(=O)C(=O)N2 [UM0141431:01, Caspase-3/7 Inhibitor I]
